Measurements reported in ChEMBL document CHEMBL5230120, “Antiviral potential of natural products from marine microbes” (Eur J Med Chem, 2020).
pEC50, pIC50: −log10 of the molar value. Values after ≈ are worked out from the molar mass of the structure shown. Starred links: 1 amine or outer side, 2 acyl side, 3 side chain; linkers in the order of their positions; H or OH if unused. Positions of bridges follow the written chain, without caps; N, C: chain ends. Non-standard residues stand in square brackets, D forms with d. Residues, ends and D or L forms follow the SMILES beside them. X1 = CCCCCCCCC[C@@H](CCCC(=O)[*:1])O[*:2]; d(aThr) = C[C@@H](O)[C@@H](N)C(=O)O; dNMeY = CN[C@H](Cc1ccc(O)cc1)C(=O)O; aIle = CC[C@@H](C)[C@H](N)C(=O)O

Columns and labels:
[1] = test system: Human alphaherpesvirus 1; format: functional, organism-based; settings: Human alphaherpesvirus 1, Vero, 72 h
[2] = test system: Influenza A virus; experiment: microbe, parasite or virus in culture; settings: H1N1, MDCK, 48 h
[3] = test system: Influenza A virus; experiment: microbe, parasite or virus in culture; settings: H3N2, MDCK, 48 h
[4] = test system: Respiratory syncytial virus; format: functional, organism-based; settings: human respiratory syncytial virus, HEp-2
[5] = test system: Dengue virus; experiment: Antiviral activity against Dengue virus serotype 2 infected in HEK293T/17 cells assessed as reduction in viral production at 50 uM incubated for 24 hrs by flow cytometric analysis; format: functional; set-up: scale not given: the % may be the effect or the level left
[6] = test system: Influenza A virus; format: functional
[7] = test system: Human alphaherpesvirus 1; format: functional, organism-based; settings: Human alphaherpesvirus 1, Vero, 72 h; remark: listed apart in the source
[8] = test system: Human alphaherpesvirus 1; format: functional, organism-based; settings: Human alphaherpesvirus 1, KOS, Vero, 72 h
[9] = test system: Influenza A virus; experiment: microbe, parasite or virus in culture; settings: H3N2, Vero
[10] = test system: Influenza A virus; experiment: microbe, parasite or virus in culture; settings: A/WSN/33 (H1N1), MDCK
[11] = test system: Human immunodeficiency virus 1; experiment: Antiviral activity against HIV-1 infected in human HEK293 cells co-expressing firefly luciferase gene assessed as inhibition of viral growth incubated for 48 hrs by firefly luciferase assay; format: functional, organism-based; settings: Human immunodeficiency virus 1, HEK293, 48 h
[12] = Cytotoxicity against human HEK293 cells assessed as reduction in cell viability; format: toxicity, cell-based
[13] = test system: Human immunodeficiency virus 1; experiment: Antiviral activity against HIV1 VSV-G pseudotyped virus infected in human SUP-T1 cells infected using supernatant of virus-producing 293T cells incubated for 48 hrs by firefly luciferase assay; format: functional, organism-based; settings: Human immunodeficiency virus 1, HEK293, 48 h
[14] = test system: Influenza A virus; format: functional, organism-based; settings: A/Puerto Rico/8/1934(H1N1), MDCK, 48 h
[15] = test system: Chikungunya virus; experiment: Antiviral activity against CHIKV infected in Golden hamster BHK-21 cells assessed as reduction in viral titer incubated for 3 days by plaque assay; format: functional, organism-based; settings: BHK-21, 72 h
[16] = test system: Enterovirus A71; format: functional, organism-based; settings: Enterovirus A, Vero
[17] = test system: Human alphaherpesvirus 1; format: functional, organism-based; settings: Human alphaherpesvirus 1, Vero, 72 h; remark: listed apart in the source
[18] = test system: Human alphaherpesvirus 1; format: functional, organism-based; settings: Human alphaherpesvirus 1, Vero, 72 h; remark: listed apart in the source
[19] = test system: Enterovirus A71; format: functional, organism-based; settings: Enterovirus A, Vero; remark: listed apart in the source
[20] = test system: Influenza A virus; format: functional, organism-based; settings: H1N1
[21] = test system: Hepatitis C virus; experiment: Antiviral activity against HCV infected in human Huh7.5 cells incubated for 72 hrs by RT-PCR assay; format: functional, organism-based, Hepacivirus hominis; settings: Huh7.5, 72 h
[22] = test system: Western equine encephalitis virus; experiment: Antiviral activity against Western equine encephalomyelitis virus Cba-87 infected in Golden hamster BSR-T7/5 cells assessed as reduction in viral RNA replication by RT-PCR analysis; format: functional, organism-based; settings: Cba-87, BSR-T7/5
[23] = test system: Human alphaherpesvirus 1; format: functional, organism-based; settings: Human alphaherpesvirus 1, 15577, Vero
[24] = test system: Human alphaherpesvirus 1; format: functional, organism-based; settings: Human alphaherpesvirus 1, Vero, 72 h; remark: listed apart in the source

COc1ccc(-c2cc3c(c(=O)o2)C[C@]2(O)[C@@]4(C)C(=O)C=CC(C)(C)[C@]4(O)CC[C@@]2(C)O3)cc1OC
IC50 [1]: 6.34 µg/mL (≈ 12.8 µM)

CC[C@H]1O[C@@H]2O[C@H](/C=C/C=C/C=C/c3oc(=O)cc(OC/C=C(\C)C(=O)OC)c3C)[C@H](O)[C@]2(C)[C@@]1(C)O
pIC50 [2]: 5.46
pIC50 [3]: 8.21

COC(=O)/C(C)=C/COc1cc(=O)oc(/C=C/C=C/C=C/[C@H]2O[C@H]3O[C@H](C)[C@](C)(O)[C@@]3(C)[C@H]2O)c1C
pIC50 [3]: 8.05

COC(=O)[C@]1(Cc2ccc3c(c2)CCC(C)(C)O3)OC(=O)C(O)=C1c1ccc(O)cc1
IC50 [1]: 28.9 µg/mL (≈ 68.1 µM)

CCCCC/C=C/C1=C(CO)[C@@H]2OC(C)(C)[C@@H](O)C[C@@]23O[C@H]3[C@@H]1O
pIC50 [4]: 4.52

CC(C)[C@@H]1NC(=O)[C@@H](C[C@@]2(O)c3ccccc3N3C(=O)C(C)(C)N[C@@H]32)n2c1nc1ccccc1c2=O
Activity [5]: 50%

CC(=O)c1c(O)cc2c3c(cccc13)C=C(C[C@@H](C)O)O2
inhibition at 50 µg/mL [6]: 42.5%

CCCCCCCCC[C@H]1CCCC(=O)N[C@H](CO)C(=O)N[C@H](C)C(=O)N2CCC[C@H]2C(=O)N[C@@H](CCC(N)=O)C(=O)N[C@H](Cc2ccc(O)cc2)C(=O)N[C@@H](C(C)C)C(=O)O1
pEC50 [7]: 4.81

COc1cc(O)c2c(c1)[C@H](O)[C@](O)(CC(C)=O)CC2=O
IC50 [8]: 0.1 µg/mL (≈ 0.357 µM)

CC(=O)[C@H]1CC[C@H]2C3=CC(=O)[C@H]4C[C@H](O)CC[C@]4(C)[C@H]3CC[C@]12C
pIC50 [9]: 4.79

COc1cc(O)c2c(c1)[C@H](O)[C@@H](CC(C)=O)CC2=O
IC50 [8]: 1 µg/mL (≈ 3.78 µM)

C=C(C)C#CC1=C[C@@H]2O[C@@H](C(C)(C)O)C[C@]23O[C@@H]3[C@@H]1O
pIC50 [10]: 4.52

COc1cc(CCCC(C)C)oc(=O)c1C
pIC50 [11]: 4.79
pIC50 [12]: < 4.00

O=C1C[C@H](O)Cc2cc3cc(O)cc(-c4ccccc4)c3c(O)c21
inhibition at 50 µg/mL [6]: 47.8%

C=C(CC[C@@H](C)[C@H]1CC=C2C3=C(CC[C@@]21C)[C@@]1(C)CC[C@H](O)C[C@@H]1CC3=O)C(C)C
pIC50 [13]: 5.46

CC1(C)CCc2cc(/C=C3\OC(=O)C=C3c3ccc(O)cc3)ccc2O1
pIC50 [14]: 4.06

CO[C@@H](CC[C@H](C)[C@H]1O[C@@]23C[C@H](OC(=O)C[C@H]([C@@H](C)O)OC(=O)C[C@](OC)(O2)[C@H](C)CC3(C)C)[C@@H]1C)c1cccc(O)c1
pIC50 [15]: 5.57

CC(O)c1cc2c(cc1O)C(=O)c1cc(O)cc(O)c1C2=O (stereo unspecified)
pIC50 [16]: 4.59

C[C@@H]1C/C=C/C(=O)C/C=C/[C@H](O)CC(=O)O1
pIC50 [17]: 6.35

COc1cc(O)c2c(c1)[C@@H]1OC(C)(OC)C[C@]1(O)CC2=O (stereo partly specified)
IC50 [8]: 0.1 µg/mL (≈ 0.34 µM)

CC(C)/C=c1\[nH]c(=O)/c(=C/c2ccc(O)cc2)[nH]c1=O
pIC50 [14]: 4.38

CCCCC/C=C/C1=C(CO)[C@@H]2OC(C)(C)[C@@H](O)C[C@]2(O)[C@H](O)[C@@H]1O
pIC50 [4]: 4.14

C=C(C)C#CC1=C[C@@H]2O[C@@H](C(C)(C)O)C[C@]23O[C@@H]3[C@H]1O
pIC50 [12]: < 4.00

CC(=O)C(C)(O)CCCCC[C@H]1C=CC(=O)O1 (stereo partly specified)
pEC50 [18]: 4.60

Cc1c2c(c3oc4c(C)c(=O)c(C)c5c-4c(c3c1O)O[C@H](C)[C@H]5C)O[C@H](C)[C@H]2C
pIC50 [19]: 4.84

O=C(O)c1ccccc1Nc1c(C[C@H](O)[C@H](O)CO)[nH]c2c(C(=O)O)cccc12
pIC50 [20]: 3.77

COc1cc(O)c2c(c1)[C@H](O)[C@](O)(CO)CC2=O
IC50 [8]: 1 µg/mL (≈ 3.93 µM)

COc1cc(O)c2c(c1)[C@H](O)[C@](O)(CC(C)O)CC2=O (stereo partly specified)
IC50 [8]: 0.01 µg/mL (≈ 0.0354 µM)

CC[C@H](C)c1nc(OC)c(Cc2c[nH]c3ccccc23)nc1O
pIC50 [13]: 5.34
pIC50 [21]: 5.11

COc1ccc(-c2cc3c(c(=O)o2)C[C@H]2[C@@](C)(CC[C@@]4(O)C(C)(C)OC(=O)CC[C@]24C)O3)cc1
IC50 [1]: 16.4 µg/mL (≈ 35 µM)

CC(C)CC[C@@H]1NC(=O)/C(=C/c2ccccc2)NC1=O
pIC50 [14]: 5.17

CCC[C@H]1C[C@H]2OC(=O)c3c(cc(O)c(OC)c3O)[C@H]2O1
pIC50 [14]: 3.76

CCCCCCCC[C@H]1C(=O)O[C@H](C)[C@H](NC(=O)c2cccc(NC=O)c2O)C(=O)O[C@@H](C)[C@@H]1OC(=O)CC(C)CC (stereo partly specified)
pIC50 [22]: 8.52

COC1(Cc2ccc(O)cc2)OC(=O)C(O)=C1c1ccc(O)cc1 (stereo unspecified)
IC50 [1]: 21.8 µg/mL (≈ 66.4 µM)

CC(C)[C@@H](NC(=O)[C@H](Cc1c[nH]c2ccccc12)NC(=O)[C@H](N)Cc1ccc(O)cc1)C(=O)O
pIC50 [23]: 4.70

COc1cc(O)c2c(c1)[C@H](O)[C@@H](CO)CC2=O
IC50 [8]: 1 µg/mL (≈ 4.2 µM)

CO[C@@H](CC[C@H](C)[C@H]1O[C@]23C[C@H](OC(=O)C[C@H]([C@@H](C)O)OC(=O)CC(=C(C)CC2(C)C)O3)[C@@H]1C)c1cccc(O)c1
pIC50 [15]: 4.65

CC(=O)[C@H]1CC[C@H]2C3=CC(=O)[C@@]4(C)C[C@H](O)CC[C@]4(C)[C@H]3CC[C@]12C
pIC50 [4]: 6.92

CCCCCCCCC[C@H]1CCCC(=O)N[C@H]([C@@H](C)O)C(=O)N[C@H](C)C(=O)N2CCC[C@H]2C(=O)N[C@@H](CCC(N)=O)C(=O)N[C@H](Cc2ccc(O)cc2)C(=O)N[C@@H](C(C)C)C(=O)O1
pEC50 [7]: 4.78

CCC(C)[C@@H]1C(=O)/C(=C(/O)[C@@H]2[C@@H]([C@@H]3O[C@H]3C)C(C)=C[C@@H]3CCC[C@H](C)[C@@H]23)C(=O)N1C (stereo partly specified)
pIC50 [24]: 5.51

C/C=C(\C)[C@H]1C(C)=C[C@@H]2CCC[C@H](C)[C@H]2[C@@H]1/C(O)=C1\C(=O)[C@@H](C(C)C)N(C)C1=O
pIC50 [24]: 5.51

CC1=C[C@@H]2CCC[C@H](C)[C@H]2[C@H](/C(O)=C2\C(=O)[C@@H](C(C)C)N(C)C2=O)[C@H]1[C@@H]1O[C@H]1C
pIC50 [24]: 5.03

CCCCCCCCC[C@H]1CCCC(=O)N[C@H]([C@@H](C)O)C(=O)N[C@H](C)C(=O)N2CCC[C@H]2C(=O)N[C@@H](CCC(N)=O)C(=O)N[C@H](Cc2ccc(O)cc2)C(=O)N[C@@H]([C@H](C)CC)C(=O)O1 ([d(aThr)][dA]PQ[dY][aIle]; linker N-C via X1)
pEC50 [7]: 4.85

COc1ccc(C[C@@H]2NC(=O)[C@@H]3CCCN3C(=O)[C@H](C(C)C)NC(=O)[C@@H](Cc3ccc(O)cc3)N(C)C(=O)[C@H](Cc3ccc(OC)cc3)NC2=O)cc1 (cyclo(PY(Me)Y(Me)[dNMeY]V))
pIC50 [23]: 5.02

Nc1nc2c(ncn2COCCO)c(=O)[nH]1 [ACYCLOVIR]
pIC50 [24]: 5.46
pEC50 [7]: 5.52

CO[C@@H](CC[C@H](C)[C@H]1O[C@@]23C[C@H](OC(=O)C[C@H]([C@@H](C)O)OC(=O)C[C@](O)(O2)[C@H](C)CC3(C)C)[C@@H]1C)c1cccc(O)c1 [DEBROMOAPLYSIATOXIN]
pIC50 [15]: 5.89

O=C1Nc2ccc(Cl)cc2[C@@](C#CC2CC2)(C(F)(F)F)O1 [EFAVIRENZ]
pIC50 [12]: 4.39

Nc1nc2c(ncn2COC(CO)CO)c(=O)[nH]1 [GANCICLOVIR]
pEC50 [18]: 7.60

CCC[C@H]1C[C@H]2OC(=O)c3c(cc(OC)c(OC)c3O)[C@H]2O1 [MONOCERIN]
pIC50 [14]: 3.76

CCOC(=O)C1=C[C@@H](OC(CC)CC)[C@H](NC(C)=O)[C@@H](N)C1 [OSELTAMIVIR]
pIC50 [10]: 4.33
pIC50 [9]: 7.47

NC(=O)c1ncn([C@@H]2O[C@H](CO)[C@@H](O)[C@H]2O)n1 [RIBAVIRIN]
pIC50 [4]: 7.10
pIC50 [19]: 4.88
inhibition at 50 µg/mL [6]: 45.3%
pIC50 [20]: 3.88
pIC50 [14]: 4.41
pIC50 [16]: 4.88
